Experimental data taken from article PMC2711991 (Cancer research, 2009).
Structures can show the parent of a compound that is named as a salt.

How the values were obtained:
Type in all cases: cell-based
ABCG2 [1] = target: T1, ABCG2 (Homo sapiens, UniProt Q9UNQ0); experiment: BLI D-luciferin efflux inhibition in HEK293/ABCG2/fLuc cells
T1 sequence (Q9UNQ0 1-655): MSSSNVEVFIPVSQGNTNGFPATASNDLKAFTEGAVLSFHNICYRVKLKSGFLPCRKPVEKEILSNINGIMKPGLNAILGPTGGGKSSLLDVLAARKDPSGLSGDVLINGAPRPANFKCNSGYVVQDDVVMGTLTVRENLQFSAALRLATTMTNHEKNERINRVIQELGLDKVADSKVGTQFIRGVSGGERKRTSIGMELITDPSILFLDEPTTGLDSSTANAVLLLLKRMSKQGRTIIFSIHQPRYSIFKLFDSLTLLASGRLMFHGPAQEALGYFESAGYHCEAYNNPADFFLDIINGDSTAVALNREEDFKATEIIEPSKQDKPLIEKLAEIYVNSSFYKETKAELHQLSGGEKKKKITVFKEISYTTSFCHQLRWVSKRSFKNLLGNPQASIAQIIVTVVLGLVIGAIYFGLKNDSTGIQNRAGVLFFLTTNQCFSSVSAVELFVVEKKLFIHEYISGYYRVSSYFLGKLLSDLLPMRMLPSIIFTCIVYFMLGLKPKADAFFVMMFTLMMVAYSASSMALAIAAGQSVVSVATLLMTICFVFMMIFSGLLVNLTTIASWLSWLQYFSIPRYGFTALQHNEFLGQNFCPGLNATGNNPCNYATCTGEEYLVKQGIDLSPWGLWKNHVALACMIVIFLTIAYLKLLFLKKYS

ABCG2 [2] = target: T1, ABCG2; experiment: BODIPY-prazosin uptake in HEK293/ABCG2 cells at […]
ABCG2 [3] = target: T1, ABCG2

SMILES	IC50 (ABCG2 [1])	also measured
COc1cc(N)c(Cl)cc1C(=O)NC1CCN(Cc2ccccc2)CC1 [clebopride maleate]	~8.2 µM	
C=C(C)[C@H]1Cc2c(ccc3c2O[C@@H]2COc4cc(OC)c(OC)cc4[C@@H]2C3=O)O1 [rotenone]		BODIPY-prazosin uptake in HEK293/ABCG2 cells at 20 μM; BLI 6.7-fold enhancement; (ABCG2 [2]): rotenone|Y|Y
COc1cc2nc(N3CCN(C(=O)C4COc5ccccc5O4)CC3)nc(N)c2cc1OC (centres unmarked) [doxazosin mesylate]	~8 µM	
CC(C)C(=O)Nc1ccc([N+](=O)[O-])c(C(F)(F)F)c1 [flutamide]		BODIPY-prazosin uptake in HEK293/ABCG2 cells at 20 μM; BLI 6.1-fold enhancement; (ABCG2 [3]): flutamide|Y|Y
Cc1c(-c2ccccc2)oc2c(C(=O)OCCN3CCCCC3)cccc2c1=O [flavoxate hydrochloride]	~20 µM	
